What all share (assay type): cell-based
One assay addresses T1, adenosine A1 receptor (Homo sapiens, UniProt P30542).
T1 construct: expressed in transfected cells; host or cells: CHO (Chinese Hamster Ovary)
T1 sequence (P30542 1-326): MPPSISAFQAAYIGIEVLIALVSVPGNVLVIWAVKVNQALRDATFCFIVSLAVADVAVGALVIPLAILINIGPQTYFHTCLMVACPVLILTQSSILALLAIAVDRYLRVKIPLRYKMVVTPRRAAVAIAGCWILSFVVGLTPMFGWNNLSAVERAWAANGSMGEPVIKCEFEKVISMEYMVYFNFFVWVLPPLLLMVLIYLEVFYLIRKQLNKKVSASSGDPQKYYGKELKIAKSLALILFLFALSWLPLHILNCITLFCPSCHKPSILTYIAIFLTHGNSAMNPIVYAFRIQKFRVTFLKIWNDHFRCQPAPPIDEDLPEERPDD
Put plainly: Indirect determination of adenosine agonism by gene expression (luciferase), A1 cells. The conditions noted are these: 1 μM forskolin; stably transfected CHO cells; 50% inhibition of luciferase answer. From the text: (§1) B-1. Indirect Determination of the Adenosine Agonism by Way of Gene Expression
(§2) Cells of the CHO (Chinese Hamster Ovary) permanent cell line are transfected stably with the cDNA for the adenosine receptor subtypes A1, A2a and A2b. The adenosine A1 receptors are coupled to the adenylate cyclase by way of Gi proteins, while the adenosine A2a and A2b receptors are coupled by way of Gs proteins. In correspondence with this, the formation of cAMP in the cell is inhibited or stimulated, respectively. After that, expression of the luciferase is modulated by way of a cAMP-dependent promoter. The luciferase test is optimized, with the aim of high sensitivity and reproducibility, low variance and good suitability for implementation on a robot system, by varying several test parameters, such as cell density, duration of the growth phase and the test incubation, forskolin concentration and medium composition. The following test protocol is used for pharmacologically characterizing cells and for the robot-assisted substance screening:
(§3) The stock cultures are grown, at 37° C. and under 5% CO2, in DMEM/F12 medium containing 10% FCS (fetal calf serum) and in each case split 1:10 after 2-3 days. The test cultures are seeded in 384-well plates with 2000 cells per well and grown at 37° C. for approx. 48 hours. The medium is then replaced with a physiological sodium chloride solution (130 mM sodium chloride, 5 mM potassium chloride, 2 mM calcium chloride, 20 mM HEPES, 1 mM magnesium chloride hexahydrate, 5 mM sodium bicarbonate, pH 7.4). The substances to be tested, which are dissolved in DMSO, are pipetted into the test cultures (maximum final concentration of DMSO in the test mixture: 0.5%) in a dilution series of from 5×10^−11M to 3×10^−6M (final concentration). 10 minutes later, forskolin is added to the A1 cells and all the cultures are subsequently incubated at 37° C. for four hours. After that, 35 μl of a solution which is composed of 50% lysis reagent (30 mM disodium hydrogenphosphate, 10% glycerol, 3% TritonX100, 25 mM TrisHCl, 2 mM dithiotreitol (DTT), pH 7.8) and 50% luciferase substrate solution (2.5 mM ATP, 0.5 mM luciferin, 0.1 mM coenzyme A, 10 mM tricine, 1.35 mM magnesium sulfate, 15 mM DTT, pH 7.8) are added to the test cultures, which are shaken for approx. 1 minute and the luciferase activity is measured using a camera system. The EC50 values are determined, i.e., the concentrations at which 50% of the luciferase answer is inhibited in the case of the A1 cell, and, respectively, 50% of the maximum stimulation with the corresponding substance is achieved in the case of the A2b and A2a cells. […] Pharmacol., 357 (1998), 1-9).
(§4) Table 1 below lists the EC50 values of representative working examples for the receptor stimulation on adenosine A1, A2a and A2b receptor subtypes: […]

The next assay concerns the target T2, adenosine A2a receptor (Homo sapiens, UniProt P29274).
T2 construct: expressed in transfected cells; host or cells: CHO (Chinese Hamster Ovary)
The assay is described as follows: Indirect determination of adenosine agonism by gene expression (luciferase), A2a cells. To be noted: stably transfected CHO cells; 50% of maximum luciferase stimulation.
From the text: as §1, §2, §3, §4

In a further assay the target is T3, adenosine A2b receptor (Homo sapiens, UniProt P29275).
T3 construct: expressed in transfected cells; host or cells: CHO (Chinese Hamster Ovary)
T3 sequence (P29275 1-332): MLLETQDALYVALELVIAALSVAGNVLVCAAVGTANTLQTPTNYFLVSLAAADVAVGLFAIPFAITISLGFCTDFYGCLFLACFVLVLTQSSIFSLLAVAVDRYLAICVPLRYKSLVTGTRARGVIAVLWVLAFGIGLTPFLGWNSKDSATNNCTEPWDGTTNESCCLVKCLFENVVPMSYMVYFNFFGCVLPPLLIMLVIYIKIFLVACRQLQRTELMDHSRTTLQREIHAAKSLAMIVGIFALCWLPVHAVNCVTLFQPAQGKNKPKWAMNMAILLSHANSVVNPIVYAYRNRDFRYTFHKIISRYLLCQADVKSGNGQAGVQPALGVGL
Put plainly: Indirect determination of adenosine agonism by gene expression (luciferase), A2b cells. To be noted: stably transfected CHO cells; 50% of maximum luciferase stimulation.
From the text: as §1, §2, §3, §4

T2 sequence (P29274 whole entry): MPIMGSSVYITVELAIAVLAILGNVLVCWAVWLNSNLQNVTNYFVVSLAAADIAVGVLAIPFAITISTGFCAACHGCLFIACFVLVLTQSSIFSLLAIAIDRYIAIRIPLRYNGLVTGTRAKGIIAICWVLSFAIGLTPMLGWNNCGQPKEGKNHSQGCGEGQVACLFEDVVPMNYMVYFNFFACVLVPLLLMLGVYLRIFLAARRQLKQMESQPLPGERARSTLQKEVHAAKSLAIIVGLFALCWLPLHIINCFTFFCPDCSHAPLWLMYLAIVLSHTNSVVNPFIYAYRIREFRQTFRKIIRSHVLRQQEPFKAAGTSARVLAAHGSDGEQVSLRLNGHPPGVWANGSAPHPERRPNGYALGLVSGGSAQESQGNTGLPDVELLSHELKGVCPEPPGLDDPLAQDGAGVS

Broadly, the EC50 is the concentration giving half of the maximal effect. As to `N#Cc1c(N)nc(SCc2coc(-c3ccc(Cl)cc3)n2)c(C#N)c1C1CCCOC1` (stereo not drawn) [Example 58, 2-Amino-6-({[2-(4-chlorophenyl)-1,3-oxazol-4-yl]methyl}sulfanyl)-4-(tetrahydro-2H-pyran-3-yl)-pyridine-3,5-dicarbonitrile], the EC50 on adenosine A1 receptor was 11 nM; on adenosine A2a receptor, > 3000 nM; at adenosine A2b receptor it was 950 nM.
As to `N#Cc1c(N)nc(SCc2cccc(C(N)=O)c2)c(C#N)c1C1CCCCC1` [Example 70], the half-maximal effective concentration (EC50) on adenosine A1 receptor turned out to be 0.08 nM; on adenosine A2a receptor, 224 nM; at adenosine A2b receptor it was 22 nM.
Turning to `N#Cc1c(N)nc(SCc2csc(-c3ccc(Cl)cc3)n2)c(C#N)c1[C@H]1CC[C@H](O)CC1` [Example 3, 2-Amino-6-({[2-(4-chlorophenyl)-1,3-thiazol-4-yl]methyl}thio)-4-(trans-4-hydroxycyclohexyl)-pyridine-3,5-dicarbonitrile], the values for the 50% effective concentration (EC50) on adenosine A1 receptor, at adenosine A2a receptor and at adenosine A2b receptor were 0.8 nM, 1260 nM and 558 nM, respectively.
The corresponding values for `N#Cc1c(N)nc(SCc2csc(-c3ccc(Cl)cc3)n2)c(C#N)c1C1CCCCC1` [Example 29, 2-Amino-6-({[2-(4-chlorophenyl)-1,3-thiazol-4-yl]methyl}thio)-4-cyclohexylpyridine-3,5-dicarbonitrile] are 3.8 nM, > 3000 nM and 345 nM.
With `N#Cc1c(N)nc(SCc2csc(-c3ccc(Cl)cc3)n2)c(C#N)c1[C@H]1CC[C@@H](O)CC1` [Example 4], the concentration giving a half-maximal response (EC50) stood at 2.9 nM on adenosine A1 receptor, 1100 nM on adenosine A2a receptor and 320 nM at adenosine A2b receptor.
`N#Cc1c(N)nc(SCc2csc(-c3ccc(Cl)cc3)n2)c(C#N)c1C1CCN(C(=O)CO)CC1` [Example 9, 2-Amino-6-({[2-(4-chlorophenyl)-1,3-thiazol-4-yl]methyl}thio)-4-(1-glycoloylpiperidin-4-yl)-pyridine-3,5-dicarbonitrile]: the EC50 on adenosine A1 receptor is 8.9 nM; at adenosine A2a receptor, > 3000 nM; at adenosine A2b receptor, 791 nM.
For `N#Cc1cnc(SCc2csc(-c3ccc(C(=O)O)cc3)n2)c(C#N)c1C1CCCOC1` (racemic) [Example 65, rac-4-[4-({[3,5-Dicyano-4-(tetrahydro-2H-pyran-3-yl)pyridin-2-yl]sulfanyl}methyl)-1,3-thiazol-2-yl]benzoic acid], the concentration for a half-maximal effect (EC50) on adenosine A1 receptor was 9.5 nM; on adenosine A2a receptor it was > 3000 nM; at adenosine A2b receptor it was 860 nM.
On to `N#Cc1c(N)nc(SCc2coc(-c3ccc(F)c(Cl)c3)n2)c(C#N)c1[C@H]1CC[C@@H](O)CC1` [Example 78], for which the EC50 at adenosine A1 receptor is 17 nM; on adenosine A2a receptor it was > 3000 nM; at adenosine A2b receptor it was > 3000 nM.
As for `N#Cc1c(N)nc(SCc2csc(-c3ccc(C(=O)O)cc3)n2)c(C#N)c1C1CCCOC1` (single isomer, unassigned; (+)) [Example 62, (+)-4-[4-({[6-Amino-3,5-dicyano-4-(tetrahydro-2H-pyran-3-yl)pyridin-2-yl]sulfanyl}methyl)-1,3-thiazol-2-yl]benzoic acid], the concentration giving a half-maximal response (EC50) on adenosine A1 receptor is 0.06 nM; at adenosine A2a receptor it was > 3000 nM; on adenosine A2b receptor it was > 3000 nM.
In the case of `N#Cc1c(N)nc(SCc2csc(-c3ccc(Cl)cc3)n2)c(C#N)c1C1CCCCO1` (single isomer, unassigned; ent-2) [Example 15, ent-2-Amino-6-({[2-(4-chlorophenyl)-1,3-thiazol-4-yl]methyl}thio)-4-(tetrahydro-2H-pyran-2-yl)-pyridine-3,5-dicarbonitrile], the concentration for a half-maximal effect (EC50) at adenosine A1 receptor is 10 nM; on adenosine A2a receptor it was 380 nM; on adenosine A2b receptor, 670 nM.
As to `N#Cc1c(N)nc(SCc2csc(-c3ccc(C(=O)O)cc3)n2)c(C#N)c1C1CCCCO1` (single isomer, unassigned) [Example 23], the concentration giving a half-maximal response (EC50) at adenosine A1 receptor turned out to be 0.4 nM; at adenosine A2a receptor, 620 nM; at adenosine A2b receptor it was 75 nM.
The corresponding values for `Cc1sc(-c2ccc(Cl)cc2)nc1CSc1nc(N)c(C#N)c(C2CCCCC2)c1C#N` [Example 76] are 106 nM, > 3000 nM and > 3000 nM.
`Cc1nc(SCc2csc(-c3ccc(C(=O)O)cc3)n2)c(C#N)c(C2CCCCO2)c1C#N` (single isomer, unassigned; (+)) [Example 56, (+)-4-[4-({[3,5-Dicyano-6-methyl-4-(tetrahydro-2H-pyran-2-yl)pyridin-2-yl]sulfanyl}methyl)-1,3-thiazol-2-yl]benzoic acid]: the EC50 is 0.8 nM on adenosine A1 receptor, > 3000 nM at adenosine A2a receptor and 51 nM at adenosine A2b receptor.
As to `CN1CCN(CCCNc2nc(SCc3csc(-c4ccc(Cl)cc4)n3)c(C#N)c(C3CCCCC3)c2C#N)CC1` [Example 35], the EC50 at adenosine A1 receptor is 68 nM; at adenosine A2a receptor it was 1470 nM; on adenosine A2b receptor, > 3000 nM.
With `N#Cc1c(N)nc(SCc2cccc(C(=O)O)c2)c(C#N)c1C1CCCCO1` (stereo not drawn) [Example 51], the EC50 was 6.8 nM at adenosine A1 receptor, > 3000 nM on adenosine A2a receptor and > 3000 nM at adenosine A2b receptor.

(Values after patent publication US8304412B2, “Cyclically substituted 3,5-dicyano-2-thiopyridines and use thereof” (Bayer Intellectual Property GmbH, priority 2006, dated 2012).)
